Assay results: US20050142121A1, “System for improving acceptance of tissue grafts made from embryonic stem cells” (priority 2003, published 2005)

Test system: mouse model for coronary infarction
Assay: hES-derived cardiomyocyte transplant in mouse model for coronary infarction, echocardiography
Type: in vivo
Conditions: for cardiac improvement upon grafting with hES derived cardiomyocytes (measured by echocardiography): grafts pre-treated with the agent, animals optionally pre-conditioned with allopurinol and uricase, result in words
Protocol: Cardiomyocytes were differentiated from human embryonic stem (hES) cells and purified by density gradient centrifugation on Percoll™, according to established methods (WO 03/006950). They were adapted to decrease uric acid production upon engraftment by culturing for 24 hours in standard differentiation medium (containing 20% FBS) to which had been added 50 μg/mL allopurinol, or 0.5 Units/mL human recombinant erythropoietin (EPO). Alternatively, the cells were heat shocked in standard differentiation medium (20% FBS) by incubating at 43° C. for 45 minutes, and then transferring to a 37° C. incubator 24 h prior to harvest.
Recipient mice were prepared to decrease uric acid production by the engrafted cells by daily injection of 800 μg allopurinol and/or 10 μg uricase intramuscularly for each of the 3 days before transplant.
The transplant experiments were performed using a mouse model for coronary infarction in an external research laboratory under a Research Agreement with Geron Corporation. The left anterior descending artery was ligated as follows. Mice were anesthetized in an isoflurane inhalation chamber and received intraperitoneal injection of Ketanest/Xylazine (50 mg/kg). They were then intubated and ventilated for the entire surgical procedure. Rectal temperature was maintained at 37° C. by a thermostatically regulated heating pad. One ligation with a 9.0 silk stitch was performed on the proximal 2 mm portion of the artery.
Using a 25 g needle, 0.25-2×10^6 cells (suspended in differentiation medium without serum) were injected into the demarcated area. Immediately afterwards, a chest tube (16 G Angio-cath) was inserted and the chest was closed in layers. Ventilation was maintained until there was sufficient spontaneous breathing, and extubation followed. The ventricular diameter was measured after three weeks by echocardiography. Fractional shortening ([…])≡[(diameter at diastole minus diameter at systole)÷(diameter at diastole)].

| Structure (SMILES) | cardiac improvement upon grafting with hES derived cardiomyocytes (measured by echocardiography) | Fractional shortening at 3 weeks post-treatment (infarcted mice (left anterior descending artery ligation), 0.25-2x10^6 cells injected into infarct area, echocardiography after three weeks) [%] |
| --- | --- | --- |
| CC(C)Cc1ccc(C(C)C(=O)O)cc1 (stereo not drawn) [ibuprophen] | considerably enhanced | – |
| Oc1ncnc2[nH]ncc12 [allopurinol] | considerably enhanced | 24 |
